Legend:
[1] = system: AhR, AhRR, and IDO-1 mRNA expression in MC38 and CT26 cells; assay: qRT-PCR of AhR downstream genes in kynurenine-stimulated cells; assay type: cell-based; conditions: 200 μM kynurenine-stimulated MC38 and CT26 cells, 24 h, qPCR
Protocol: MC38 and CT26 were treated with different concentrations of 7k and 200 μM Kynurenine for 24 h. RNA from treated cells was extracted and cDNA was synthesized using the ReverTraAce™ qPCR RT Kit (TOYOBO, Osaka, Japan), followed by evaluation of AhR, AhRR, and IDO-1 mRNA expression with quantitative real-time PCR. PCR conditions were 95 °C preincubation, maintained for 1 min, and then 1 cycle of 95 °C denaturation for 15 s, 55 °C annealing for 15 s, and 72 °C polymerization for 45 s. A total of 40 cycles were repeated. Advanced Relative Quantification analysis was used to confirm the structure of the expected quantitative real-time PCR product, and the variability of other gene amplification was calibrated by relative comparison with GAPDH expression (Table 1).

[2] = Body weight during in vivo therapy; conditions: 7k-treated tumor-bearing mice during in vivo therapy
Protocol: (§1) In vivo experiments were conducted using 6-week-old male immunocompetent BALB/c and C57BL/6 with 18–20 g body weight (Orient Bio Inc., Seungnam, Republic of Korea). All animal experimental procedures were maintained and used in accordance with the Guidelines for the Care and Use of Laboratory Animals of the Institute of Laboratory Animal Center, Daegu-Gyeongbuk Medical Innovation Foundation (K-MEDI hub). The animal studies were conducted after approval by the institutional reviewer board on the Ethics of Animal Experiments of the Daegu-Gyeongbuk Medical Innovation Foundation (approval number: KMEDI-24041103-01).
Study 1: Antitumor activity of 7k alone in mice with either CT26 syngeneic model or MC38 syngeneic model. Mice were subcutaneously challenged with 5 × 10^5 either MC38 or CT26 cells. When tumor formation was detected via inspection and palpation, 7k treatment was initiated once a day for 14 days by oral gavage.
Study 2: Antitumor activity of combination with anti-PD1 and 7k in CT26 tumor bearing mice. Mice were subcutaneously challenged with 5 × 10^5 CT26 cells. Tumor bearing mice were divided into four groups as following; Group 1: vehicle, Group 2: 10 mg/kg anti-PD1, Group 3: 10 mg/kg 7k, and Group 4: 10 mg/kg anti-PD1 + 10 mg/kg 7k. 7k was administered by oral gavage once daily. […]

[3] = system: MC38 and CT26 cells; assay: Apoptosis analysis (Annexin V / propidium iodide); assay type: cell-based; conditions: 24 h treatment
Protocol: Cells were washed with PBS containing 1% horse serum and stained with the FITC-Annexin V Apoptosis Detection Kit I (BD Biosciences) at room temperature for 30 min in the dark. DNA content, cell-cycle profiles, and forward scatter profiles were determined using the Becton Dickinson LSRFortessa^TM and analyzed with FlowJo software v11.

[4] = system: colorectal cancer cells; assay: Cell viability assay (CCK-8), colorectal cancer cells; assay type: cell-based; conditions: 24 h
Protocol: Chinese hamster ovary CHO cells, mouse fibroblast L929 cells, normal colon CCD18-Co cells, monkey kidney fibroblast COS-7 cells, colorectal cancer cells including HCT-116, RKO, SW480, SW620, CT26, and MC38 cells were purchased from ATCC (American Type Culture Collection). CHO, L929, Cos-7, and all cancer cells were maintained in RPMI 1640 or DMEM supplemented with 10% FBS (Gibco FBS; Thermo Fisher Scientific, Hanover Park, IL, USA) and 1% streptomycin/penicillin. CCD18-Co cells were cultured in high-glucose Dulbecco modified Eagle medium containing 10% FBS and 1% streptomycin/penicillin. All cells were grown in 5% CO2 at 37 °C. Mycoplasma testing was regularly performed every month using the BioMycoX Mycoplasma PCR Detection Kit (CellSafe, Yongin, Republic of Korea).
Cell viability was analyzed using a Cell Counting Kit-8 (Dojindo molecular technologies, Rockville, MD, USA). Cells were seeded in 96-well plates and treated with different concentrations of 7k. At the indicated time points, CCK-8 (10 μL/well) reagents were added to the cells, followed by further incubation at 37 °C for 90 min. The absorbance at 450 nm was measured using a plate reader (BioTek instruments, Winooski, VT, USA).

[5] = system: MC38 tumor; assay: In vivo therapy, MC38 syngeneic model; design: species or system mice
Protocol: as §1
Study 1: Antitumor activity of 7k alone in mice with either CT26 syngeneic model or MC38 syngeneic model. Mice were subcutaneously challenged with 5 × 10^5 either MC38 or CT26 cells. […]
The 7k was dissolved in solution including 5% DMSO, 55% DW, and 40% PEG. Tumor size was measured with a caliper at the indicated time points, and tumor volume (mm^3) was calculated using the following formula, tumor volume (mm^3) = d2 × D/2, where d and D are the shortest and longest diameters in mm, respectively.

With `CC(C)n1cc2nc(-c3cc(F)cc(F)c3)nc(NCCc3c[nH]c4ccccc34)c2n1` [Compound 7k, N-(2-(1H-indol-3-yl)ethyl)-5-(3,5-difluorophenyl)-2-isopropyl-2H-pyrazolo [4,3-d]pyrimidin-7-amine] the “expression levels of AhR, AhRR, and IDO-1” value [1] was “reduced the expression levels of AhR, AhRR, and IDO-1”, the body weight [2] was “No abnormal reduction in body weight” and the apoptosis [3] was “increase in apoptosis”. For the same molecule, the “cell proliferation / viability of colorectal cancer cells” value [4] was “dose-dependent decrease in cell proliferation”, the “tumor growth inhibition (TGI)” value ([5]; MC38 model, combination study, 7k oral daily 20 days, anti-PD1 i.p. every three days four times) was 45% and the “tumor growth inhibition (TGI)” value ([5]; MC38 model, comparison of 7k and 3′,4′-dimethoxyflavone, 10 mg/kg oral once a day, 18 days) was 51%. For the same molecule, the tumor weight ([5]; MC38 tumor bearing mice, vs vehicle-treated mice (Figure S5)) was “significantly lower” and the “tumor growth inhibition (TGI)” value ([5]; MC38 tumor-bearing mice, single agent, 10 mg/kg oral once a day for 14 days) was 49%.

— publication PMC12567141, “Design, Synthesis and Biological Evaluation of Pyrazolopyrimidine Derivatives as Aryl Hydrocarbon Receptor Antagonists for Colorectal Cancer Immunotherapy” (Pharmaceutics, 2025)
